According to ChEMBL document CHEMBL1201862, “PubChem BioAssay data set” (2004):
Active and inactive are the calls of the source.

Assays:
Fatty acid synthase [1] = biological target: T1, Fatty acid synthase (Homo sapiens, UniProt P49327); assay: FAS thioesterase domain inhibitors, dose response, biochemical, kinetic fluorescence intensity (AID 624326); type: functional;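 further: rate of fluorescence rise from hydrolysis of a fluorogenic O-methyl fluorescein ester substrate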
Fatty acid synthase [2] = biological target: T1, Fatty acid synthase; assay: FAS thioesterase domain inhibitors, dose response, biochemical, endpoint fluorescence intensity, uHTS hits (AID 624327); type: functional;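 further: fluorescence from hydrolysis of an O-methyl fluorescein acyl ester substrate by the enzyme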
[3] = biological target: T2, Polyadenylate-binding protein 1 (Homo sapiens, UniProt P11940); assay: PABP1 MLLE–PAM2 interaction inhibitors, dose response, miRNA deadenylation inhibitor project, biochemical, fluorescence polarization, Cy5-PAM2 peptide, secondary (AID 602260); type: functional; conditions: read-out: IC50_Mean
[4] = biological target: T2, Polyadenylate-binding protein 1; assay: PABP1 MLLE–PAM2 binding inhibitor potency, dose response, biochemical, fluorescence polarization, FITC-PAM2 peptide (AID 602259); type: functional; conditions: read-out: IC50_Mean
[5] = Luminescence Cell-Based Dose Retest to Confirm Inhibitors of Cancer Stem Cells. [Related pubchem assays (depositor defined):AID2717, AID2721]; type: functional; conditions: Homo sapiens
INS1 = assay: beta cell apoptosis inhibitors, cytokine rescue, dose response, luminescence, retest (AID 449756); type: functional, cell-based; conditions: Rattus norvegicus;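 further: cell death triggered by IL-1 beta plus TNF-alpha plus IFN-gamma mixture; protective hits raise ATP signal compared with cytokine alone wells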
[6] = system: Streptococcus sp. 'group A'; assay: growth inhibition of control SK(-) GAS strain, dose response, counter-screen for streptokinase expression inhibitor project, luminescence, kanamycin, BacTiterGlo, confirmation (AID 1900); type: functional, organism-based
Streptococcus = assay: Group A Streptococcus viability loss, dose response, counter-screen for streptokinase expression inhibitor project, luminescence, BacTiterGlo (AID 1915); type: functional, organism-based;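 further: potency for reduction of bacterial viability or growth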
[7] = biological target: T3, Heat shock factor protein 1 (Mus musculus, UniProt P38532); assay: HSF1 potentiators in luciferase reporter cells, confirmation, cell-based, NIH3T3, luminescence, dose retest (AID 435004); type: functional;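 further: stress induced by proteasome inhibitor MG132 added 30 min after compound; luciferase reporter driven by HSF1 response element in NIH3T3 cells; actives raise luminescence as potentiators of the MG132 stress response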
T3 sequence (P38532 whole entry): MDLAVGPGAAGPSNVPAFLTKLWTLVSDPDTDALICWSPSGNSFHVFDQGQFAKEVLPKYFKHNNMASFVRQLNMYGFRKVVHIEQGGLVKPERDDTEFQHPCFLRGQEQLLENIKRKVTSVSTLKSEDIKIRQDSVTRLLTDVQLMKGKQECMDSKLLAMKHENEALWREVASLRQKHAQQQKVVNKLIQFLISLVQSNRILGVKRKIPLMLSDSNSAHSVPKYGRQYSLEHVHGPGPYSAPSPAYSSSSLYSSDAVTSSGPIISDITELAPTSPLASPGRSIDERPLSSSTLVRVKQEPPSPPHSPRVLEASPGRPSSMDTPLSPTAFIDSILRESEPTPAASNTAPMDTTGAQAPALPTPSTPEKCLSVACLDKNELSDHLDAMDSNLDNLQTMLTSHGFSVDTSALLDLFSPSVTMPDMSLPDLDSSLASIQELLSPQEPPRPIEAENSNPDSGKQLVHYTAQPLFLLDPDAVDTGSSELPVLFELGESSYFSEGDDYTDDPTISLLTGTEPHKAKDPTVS

T1 sequence (P49327 whole entry, the tested form may be a part): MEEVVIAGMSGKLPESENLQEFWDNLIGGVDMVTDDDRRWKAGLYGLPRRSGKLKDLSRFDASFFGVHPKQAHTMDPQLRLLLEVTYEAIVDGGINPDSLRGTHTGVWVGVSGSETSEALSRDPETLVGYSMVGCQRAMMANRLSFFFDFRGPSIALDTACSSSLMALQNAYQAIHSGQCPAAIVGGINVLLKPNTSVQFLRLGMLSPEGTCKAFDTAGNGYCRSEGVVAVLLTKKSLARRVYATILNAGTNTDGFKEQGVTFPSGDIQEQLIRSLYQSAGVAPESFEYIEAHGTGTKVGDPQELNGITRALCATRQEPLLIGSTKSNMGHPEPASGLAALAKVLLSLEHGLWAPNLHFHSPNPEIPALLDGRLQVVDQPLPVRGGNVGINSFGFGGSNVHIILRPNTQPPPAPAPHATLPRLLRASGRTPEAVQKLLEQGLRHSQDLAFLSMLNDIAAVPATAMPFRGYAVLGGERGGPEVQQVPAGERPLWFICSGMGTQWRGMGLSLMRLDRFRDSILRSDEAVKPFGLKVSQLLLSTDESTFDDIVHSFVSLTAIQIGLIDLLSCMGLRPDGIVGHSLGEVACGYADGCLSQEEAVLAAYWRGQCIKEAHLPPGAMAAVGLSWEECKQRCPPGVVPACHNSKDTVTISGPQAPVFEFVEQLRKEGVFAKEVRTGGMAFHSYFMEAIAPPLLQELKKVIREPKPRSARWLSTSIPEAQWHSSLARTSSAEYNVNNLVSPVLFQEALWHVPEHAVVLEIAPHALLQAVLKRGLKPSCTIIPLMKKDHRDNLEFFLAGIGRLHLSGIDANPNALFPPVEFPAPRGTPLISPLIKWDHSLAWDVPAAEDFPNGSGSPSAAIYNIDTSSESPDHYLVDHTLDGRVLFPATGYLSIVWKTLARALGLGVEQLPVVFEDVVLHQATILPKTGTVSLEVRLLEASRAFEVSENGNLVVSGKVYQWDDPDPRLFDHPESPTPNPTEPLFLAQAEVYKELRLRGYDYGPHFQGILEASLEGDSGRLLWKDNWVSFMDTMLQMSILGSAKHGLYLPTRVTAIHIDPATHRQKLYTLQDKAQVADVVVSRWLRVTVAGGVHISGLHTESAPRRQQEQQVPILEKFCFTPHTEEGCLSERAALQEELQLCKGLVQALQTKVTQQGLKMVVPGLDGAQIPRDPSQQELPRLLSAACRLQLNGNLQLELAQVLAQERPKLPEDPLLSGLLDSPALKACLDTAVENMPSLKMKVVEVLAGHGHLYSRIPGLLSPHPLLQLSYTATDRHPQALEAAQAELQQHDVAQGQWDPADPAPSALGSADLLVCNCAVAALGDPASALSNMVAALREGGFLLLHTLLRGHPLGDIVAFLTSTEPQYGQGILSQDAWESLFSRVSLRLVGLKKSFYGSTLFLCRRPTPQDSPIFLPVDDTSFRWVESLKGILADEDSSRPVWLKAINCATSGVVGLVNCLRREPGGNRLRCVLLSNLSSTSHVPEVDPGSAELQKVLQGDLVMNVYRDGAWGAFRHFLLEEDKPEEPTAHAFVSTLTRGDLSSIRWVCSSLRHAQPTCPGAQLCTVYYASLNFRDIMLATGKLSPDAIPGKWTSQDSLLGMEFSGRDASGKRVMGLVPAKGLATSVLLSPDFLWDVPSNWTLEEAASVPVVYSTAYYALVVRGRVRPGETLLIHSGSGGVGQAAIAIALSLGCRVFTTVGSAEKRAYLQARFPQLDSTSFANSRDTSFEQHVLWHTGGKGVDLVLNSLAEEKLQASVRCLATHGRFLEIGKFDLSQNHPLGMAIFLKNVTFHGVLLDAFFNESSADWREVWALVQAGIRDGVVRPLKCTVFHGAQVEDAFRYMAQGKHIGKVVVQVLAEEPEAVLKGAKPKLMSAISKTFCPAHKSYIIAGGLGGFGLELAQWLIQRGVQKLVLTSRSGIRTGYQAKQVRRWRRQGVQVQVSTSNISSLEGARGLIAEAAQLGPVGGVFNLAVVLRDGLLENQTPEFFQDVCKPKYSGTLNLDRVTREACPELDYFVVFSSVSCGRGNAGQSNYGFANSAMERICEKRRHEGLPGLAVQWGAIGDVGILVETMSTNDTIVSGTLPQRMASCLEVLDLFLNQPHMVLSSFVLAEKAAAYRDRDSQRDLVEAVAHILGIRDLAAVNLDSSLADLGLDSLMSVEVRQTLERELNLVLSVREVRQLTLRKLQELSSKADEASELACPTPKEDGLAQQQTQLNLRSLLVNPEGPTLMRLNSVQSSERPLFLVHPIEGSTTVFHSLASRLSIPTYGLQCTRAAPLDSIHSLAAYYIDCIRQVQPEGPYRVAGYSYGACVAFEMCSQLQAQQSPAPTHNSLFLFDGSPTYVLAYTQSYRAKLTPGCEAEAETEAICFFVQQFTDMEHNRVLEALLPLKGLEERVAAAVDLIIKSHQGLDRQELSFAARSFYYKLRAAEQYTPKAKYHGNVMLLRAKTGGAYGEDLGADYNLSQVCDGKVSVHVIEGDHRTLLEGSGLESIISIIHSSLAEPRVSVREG
T2 sequence (P11940 whole entry): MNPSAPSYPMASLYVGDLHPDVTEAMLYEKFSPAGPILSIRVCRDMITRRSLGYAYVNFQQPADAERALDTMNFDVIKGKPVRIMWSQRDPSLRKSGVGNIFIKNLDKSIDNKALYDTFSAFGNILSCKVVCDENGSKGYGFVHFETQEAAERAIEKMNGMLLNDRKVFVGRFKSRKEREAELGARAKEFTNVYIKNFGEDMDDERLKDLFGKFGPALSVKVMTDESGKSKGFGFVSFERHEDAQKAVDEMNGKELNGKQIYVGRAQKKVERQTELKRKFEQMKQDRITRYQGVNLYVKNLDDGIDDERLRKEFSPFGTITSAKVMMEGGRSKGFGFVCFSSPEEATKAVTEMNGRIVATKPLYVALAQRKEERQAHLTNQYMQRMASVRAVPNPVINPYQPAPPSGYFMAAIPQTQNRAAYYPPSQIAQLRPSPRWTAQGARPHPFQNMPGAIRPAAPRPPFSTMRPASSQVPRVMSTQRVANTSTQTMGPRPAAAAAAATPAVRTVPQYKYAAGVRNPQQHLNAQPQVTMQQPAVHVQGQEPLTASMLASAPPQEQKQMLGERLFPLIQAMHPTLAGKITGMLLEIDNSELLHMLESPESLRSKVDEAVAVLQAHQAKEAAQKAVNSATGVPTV

Structure (SMILES) | IC50 (Fatty acid synthase [1]) | IC50 (Fatty acid synthase [2]) | IC50 [3] | IC50 [4] | further results
O=[N+]([O-])c1cccc(CN2CC=C(c3ccc(F)cc3)CC2)c1 | 9.86 µM (active) | 11.4 µM (active) | – | – | –
O=S(=O)([N-]c1nc2ccccc2nc1-[n+]1ccc(Cc2ccccc2)cc1)c1ccc(Br)s1 | – | – | > 66 µM (inactive) | 52.3 µM (inactive) | AC50 [5]: 6.23 µM (active); AC50 (INS1): 6.81 µM (active)
CCCOc1ccc(C(=O)NNC(=S)NC(=O)c2cc(-c3ccc(Cl)cc3)nc3ccccc23)cc1 | – | – | > 66 µM (inactive) | > 66 µM (inactive) | EC50 [6]: < 60 nM (active); EC50 (Streptococcus): < 60 nM (active)
COc1ccc(CN2CC(=O)N3[C@H]4c5ccccc5OC[C@@H]4[C@H](c4ccccc4)[C@]3(C)C2=O)cc1 | – | – | > 66 µM (inactive) | > 66 µM (inactive) | –
O=C(/C=C/c1cccc([N+](=O)[O-])c1)NC(=S)Nc1ccc(CN2CCOCC2)cc1 | – | – | > 66 µM (inactive) | > 66 µM (inactive) | EC50 [7]: 14.6 µM (active)
CC1=CC(=O)C=CC1=Nc1ccc(N(C)C)cc1 | – | – | 61.6 µM (inactive) | > 66 µM (inactive) | –

Continued, in another order:

IC50 (Fatty acid synthase [1]) | IC50 (Fatty acid synthase [2]) | Structure (SMILES) | IC50 [3] | IC50 [4] | further results
2.6 µM (active) | 1.98 µM (active) | O=C(COC(=O)c1cc([N+](=O)[O-])ccc1N1CCOCC1)NCCc1ccccc1 | – | – | –
7.34 µM (active) | 5.95 µM (active) | COc1ccc([N+](=O)[O-])cc1C(=O)NCCOc1ccc(Cl)cc1 | – | – | –
11.9 µM (active) | 7.7 µM (active) | O=C(OCC(=O)N1CCN(c2ccccc2)CC1)c1cccc([N+](=O)[O-])c1 | – | – | –
4.83 µM (active) | 4.35 µM (active) | N#Cc1cc(Oc2ccc(Cl)cc2)c(N2CCOCC2)cc1C#N | – | – | –
